Where “and” joins values, the source holds several entries; their conditions need not be identical. Equal values may be shown once. Read-outs that look alike come from different tables or passages of the source. Peptide text beside a SMILES is read from it.
Assays:
[1] = test system: second representative of the glnA motif from a marine metagenomic sequence; test: In-line probing of a second glnA motif representative; format: binding; conditions: for binding by the RNA: at 1 mM (data not shown)
From the text: (§1) RNAs were 5′-^32P radiolabeled and subjected to in-line probing analyses, which have been described in detail previously (Soukup et al. Relationship between internucleotide linkage geometry and the stability of RNA. RNA 1999; 5:1308-1325; Regulski E E, Breaker R R. In-line probing analysis of riboswitches. Methods Mol Biol 2008; 419:53-67). Briefly, 5′ triphosphates were removed from the RNAs using alkaline phosphatase (Roche) according to the manufacturer's protocol. The dephosphorylated RNAs were 5′-^32P radiolabeled by incubation with [γ-^32P] ATP and T4 polynucleotide kinase (New England Biolabs), following the manufacturer's directions. Denaturing PAGE (6%) was subsequently employed to purify the RNAs as described above. The radiolabeled RNAs were then incubated at 23° C. in a solution containing 75 mM Tris-HCl (pH 8.3 at 23° C.), 20 mM MgCl2, 100 mM KCl, and various different potential ligands (see results section for full list) at concentrations ranging from 1 μM to 10 mM in most cases. When RNAs were subjected to in-line probing with 100 mM L-glutamate, the amino acid replaced the Tris-HCl as the buffering agent. HCl and NaOH were used to adjust this modified in-line probing solution to pH 8.3.
(§2) After incubating for approximately 40 hours, the products of in-line probing reactions were separated by denaturing 10% PAGE. The gels were then dried and imaged using a Storm 820 PhosphorImager (GE Healthcare). The relative intensities of the various degradation products were quantified using SAFA v1.1 software (Das et al. SAFA: Semi-automated footprinting analysis software for high-throughput quantification of nucleic acid footprinting experiments. RNA 2005; 11:344-354). The bands which modulated the most intensely were used to make KD estimates.

83 DP RNA = test: In-line probing of 83 DP RNA (Downstream-peptide motif); format: binding, Synechococcus sp. CC9902; conditions: for binding by the Downstream-peptide glutamine aptamer: stated in the discussion for both aptamer subtypes, concentration not given at place; for Kd: 1-to-1 interaction, read-out: apparent KD
From the text: as §1, §2

67 glnA RNA = test: In-line probing of 67 glnA RNA; format: binding, Synechococcus elongatus; conditions: for binding by the 67 glnA aptamer: concentrations as high as 10 mM
From the text: as §1
as §2, with “estimates. In the cases where the concentrations of ligand used were insufficiently high to saturate RNA binding, the data was normalized to KD values that best explained the data assuming a standard one-to-one interaction.” for “estimates.”

[2] = test system: 67 glnA mutant RNA construct M2; test: In-line probing of 67 glnA mutant M2 (disruptive mutations); format: binding, Synechococcus elongatus; conditions: two disruptive mutations in P3 stem
Procedure: (§3) Pairs of oligonucleotides were used in primer extension reactions to make full-length double-stranded DNA (dsDNA) products to use as templates for in vitro transcription reactions. Primers 1 and 2 were used for 67 glnA, 2 and 3 for Ml, 4 and 5 for M3, 1 and 6 for M2, 1 and 7 for M4, 8 and 9 for 83 DP, 8 and 10 for M5, and 8 and 11 for M6. A 100 μl solution containing 300 pmoles of each primer, 50 mM Tris-HCl (pH 8.3 at 23° C.), 75 mM KCl, 3 mM MgCl2, […] dithiothreitol (DTT), 1 mM of each of the four deoxynucleoside triphosphates (dNTPs), and 8 U/μl of SuperScript II Reverse Transcriptase (Invitrogen) was heated for 2 hours at 42° C. The full length dsDNA was then purified using the QIAquick PCR Purification Kit (QIAgen) following the manufacturer's protocol and was eluted in a volume of 50 […]
(§4) After incubating for approximately 40 hours, the products of in-line probing reactions were separated by denaturing 10% PAGE. […] The relative intensities of the various degradation products were quantified using SAFA v1.1 software (Das et al. SAFA: Semi-automated footprinting analysis software for high-throughput quantification of nucleic acid footprinting experiments. RNA 2005; 11:344-354). […]

[3] = test system: 67 glnA mutant RNA construct M1; test: In-line probing of 67 glnA mutant M1 (disruptive mutations); format: binding, Synechococcus elongatus; conditions: two disruptive mutations in P2 stem
Procedure: as §3, §4

construct M4 = test: In-line probing of 67 glnA construct M4 (compensatory mutations); format: binding, Synechococcus elongatus
Procedure: as §3, §4

construct M3 = test: In-line probing of 67 glnA construct M3 (compensatory mutations); format: binding, Synechococcus elongatus
Procedure: as §3, §4

M5 RNA = test: In-line probing of mutant 83 DP RNA M5 (disrupted pseudoknot); format: binding, Synechococcus sp. CC9902; conditions: two disruptive mutations in the pseudoknot
Procedure: as §3, §4

pfl RNA [4] = test: RNase protection assay (RNase T1 and V1) with pfl RNA; format: binding, Clostridium acetobutylicum ATCC 824; conditions: shorter incubation time than in-line probing
Procedure: Due to the instability of PRPP, it was also tested in an RNase protection assay with RNase T1 and V1. The use of an RNase permits a shorter incubation time than used for in-line probing.

pfl RNA [5] = test: In-line probing experiments with a pfl RNA; format: binding, Clostridium acetobutylicum ATCC 824; conditions: 1 mM except where noted
Procedure: Some riboswitches were tested for metabolite binding using in-line probing experiments (Regulski et al. In-line probing analysis of riboswitches. Methods Mol Biol 2008, 419:53-67). RNAs tested were transcribed in vitro from a DNA template using RNA polymerase T7. In the experiments described below, no modulation in gel patterns was observed that would indicate metabolite binding.
Experiments were performed with the following RNA encoded by Clostridium acetobutylicum ATCC 824:
The following metabolites were tested at 1 mM except where noted: AICAR riboside, AICAR ribotide, SAICAR, GAR, pyruvate, guanine (100 μM), hypoxanthine (40 μM), IMP, formate, THF, dihydrofolate, 5-formyl-THF, 10-formyl-THF, methylene-THF, methenyl-THF, methyl-THF, SAICAR, glutamate, glutamine, glycine, serine, aspartate, dUMP, homocysteine, SAM, AICA, CAIR, CoA, acetyl-CoA, alanine, NAD, NADH, NADP, NADPH, dCMP, histidine, D-ribose 5′-phosphate, adenine, D-ribose, NADH, SAICAR, CAIR, glycine, PRPR, ppGpp, cAMP, HMP, ATP (600 μM), CTP (600 μM), GTP (600 μM), UTP (600 μM), AMP, ADP, GMP, GDP, UMP, UDP, uridine, and tryptophan.

SK209-52 RNA = test: In-line probing of SK209-52 RNA (SAM/SAH motif); format: binding, Roseobacter sp. SK209-2-6; conditions: SAM samples may contain breakdown product SAH, read-out: apparent dissociation constant (KD)
Procedure: RNA constructs were prepared by in vitro RNA transcription RNA using T7 RNA polymerase and the appropriate DNA templates that were created by overlap extension of synthetic DNA oligonucleotides using SuperScript II reverse transcriptase (Invitrogen) as instructed by the manufacturer. RNA transcripts were purified using denaturing (8 M urea) polyacrylamide gel electrophoresis (PAGE). RNAs were eluted from the gel, dephosphorylated using alkaline phosphatase and 5′ radiolabeled with [γ-32P] using methods reported previously (Wang et al. Riboswitches that sense S-adenosylhomocysteine and activate genes involved in coenzyme recycling. Mol Cell 2008, 29:691-702). 5′ 32P-labeled fragments resulting from in-line probing reactions were subjected to denaturing PAGE, imaged and analyzed as previously described (Wang et al. Riboswitches that sense S-adenosylhomocysteine and activate genes involved in coenzyme recycling. Mol Cell 2008, 29:691-702).

[6] = test system: SAM-Chlorobi RNA (four RNAs with different 3′ ends); test: In-line probing experiments with SAM-Chlorobi RNA; format: binding, Chlorobium tepidum TLS; conditions: 1 mM
Procedure: Some riboswitches were tested for metabolite binding using in-line probing experiments (Regulski et al. In-line probing analysis of riboswitches. Methods Mol Biol 2008, 419:53-67). RNAs tested were transcribed in vitro from a DNA template using RNA polymerase T7. In the experiments described below, no modulation in gel patterns was observed that would indicate metabolite binding. […] Experiments were performed on the following four RNAs, encoded by Chlorobium tepidum TLS, which have different 3′ ends: Lowercase letters represent G nucleotides that were added to improve transcription yield. The following metabolites were tested at 1 mM: SAM, SAH, methionine, and homocysteine.

O=C(O)CCC(=O)C(=O)O [2-oxoglutarate]
binding by the RNA [1]: rejected

NC(=O)CCCC(=O)O [5-amino-5-oxopentanoic acid]
binding by the Downstream-peptide glutamine aptamer (83 DP RNA): loss of binding | binding by the 67 glnA aptamer (67 glnA RNA; in-line probing): rejected

CC(=O)CC[C@H](N)C(=O)O [(S)-2-amino-5-oxo-hexanoic acid]
binding by the Downstream-peptide glutamine aptamer (83 DP RNA): reject | binding by the 67 glnA aptamer (67 glnA RNA; in-line probing): rejected

C[C@H](N)C(=O)N[C@@H](CCC(N)=O)C(=O)O [Ala-Gln] (H-Ala-Gln-OH)
binding by the Downstream-peptide glutamine aptamer (83 DP RNA): neither Ala-Gln nor L-glutamine t-butyl ester are bound | binding by the 67 glnA aptamer (67 glnA RNA; in-line probing): rejected

NC(=O)CC[C@@H](N)C(=O)O [D-glutamine]
binding to 83 DP RNA (83 DP RNA; concentrations up to 10 mM): no binding was detected | affinity relative to its more common isomer (L-glutamine) (67 glnA RNA; in-line probing): approximately 1/10 | fold tighter binding of L-glutamine compared to D-glutamine (67 glnA RNA; in-line probing): 10 fold

NC(=O)C[C@H](N)C(=O)O [L-asparagine]
binding by the 67 glnA aptamer (67 glnA RNA; in-line probing): rejected

CC(C)(C)OC(=O)[C@@H](N)CCC(N)=O [L-glutamine t-butyl ester]
binding by the Downstream-peptide glutamine aptamer (83 DP RNA): neither Ala-Gln nor L-glutamine t-butyl ester are bound | binding by the 67 glnA aptamer (67 glnA RNA; in-line probing): rejected

NC(=O)CC[C@H](N)C(=O)O [L-glutamine]
structural modulation upon addition of glutamine [2]: no modulation | structural modulation upon addition of glutamine [3]: no modulation | structural modulation in response to glutamine addition (construct M4): regain structural modulation | structural modulation in response to glutamine addition (construct M3): regain structural modulation | Kd [1]: ~150 µM | binding to glutamine (M5 RNA): does not bind | Kd (83 DP RNA; listed as glutamine): ~5000 µM | Kd (83 DP RNA): 5000 µM | pattern of RNA cleavage products (67 glnA RNA; 1 mM glutamine added to in-line probing assay containing 100 mM glutamate): produced the pattern of RNA cleavage products expected for glutamine binding | Kd (67 glnA RNA; curve expected for a 1-to-1 RNA-ligand interaction (FIG. 30C), read-out: KD): 575 µM | Kd (67 glnA RNA; in-line probing, one-to-one interaction, read-out: apparent dissociation constant (KD)): ~575 µM

NC(=O)CCC[C@H](N)C(=O)O [L-homoglutamine]
binding by the Downstream-peptide glutamine aptamer (83 DP RNA): reject | binding by the 67 glnA aptamer (67 glnA RNA; in-line probing): rejected

NCCCC[C@H](N)C(=O)O [L-lysine]
binding by the RNA [1]: rejected

CCNC(=O)CC[C@H](N)C(=O)O [L-theanine]
binding by the 67 glnA aptamer (67 glnA RNA; in-line probing): rejected

NC(=O)CC[C@H](N)CC(=O)O [L-β-homo glutamine]
binding by the 67 glnA aptamer (67 glnA RNA; in-line probing): rejected

CC(=O)OC[C@H](N)C(=O)O [O-acetyl-L-serine]
binding by the 67 glnA aptamer (67 glnA RNA; in-line probing): rejected

O=P(O)(O)OC[C@H]1O[C@H](OP(=O)(O)OP(=O)(O)O)[C@H](O)[C@@H]1O [PRPP]
change in degradation patterns (pfl RNA [4]): no change in degradation patterns was detected | modulation in gel patterns that would indicate metabolite binding (pfl RNA [5]): did not reveal evidence of binding

Nc1ncnc2c1ncn2[C@@H]1O[C@H](CSCC[C@H](N)C(=O)O)[C@@H](O)[C@H]1O [SAH, S-adenosylhomocysteine]
Kd (SK209-52 RNA): ~4.3 µM | modulation in gel patterns that would indicate metabolite binding [6]: did not reveal binding

C[S+](CC[C@H](N)C(=O)[O-])C[C@H]1O[C@@H](n2cnc3c(N)ncnc32)[C@H](O)[C@@H]1O (stereo partly shown) [SAM, S-adenosylmethionine]
Kd (SK209-52 RNA): 8.6 µM and ~8.6 µM | modulation in gel patterns that would indicate metabolite binding [6]: did not reveal binding

N=C(N)NCCCCN [agmatine]
binding by the RNA [1]: rejected

N[C@@H](CCC(=O)O)C(=O)O [glutamate]
binding by the RNA [1]: rejected | binding by the Downstream-peptide glutamine aptamer (83 DP RNA): reject | structural modulation (67 glnA RNA; in-line probing, 100 mM glutamate as the primary buffering agent): no structural modulation was observed

O=C(O)CCCC(=O)O [glutaric acid]
binding by the RNA [1]: rejected

NCCCCN [putrescine]
binding by the RNA [1]: rejected

Cc1ncc(COP(=O)(O)O)c(C=O)c1O [pyridoxal phosphate]
binding by the RNA [1]: rejected

O=C(O)CCC(=O)O [succinate]
binding by the RNA [1]: rejected

O=CCCC(=O)O [succinic semialdehyde]
binding by the RNA [1]: rejected

NCCCC(=O)O [γ-aminobutyric acid]
binding by the RNA [1]: rejected

From patent US20120321647A1, “STRUCTURED RNA MOTIFS AND COMPOUNDS AND METHODS FOR THEIR USE” (YALE UNIVERSITY, priority 2010, published 2012)
